Assay results: patent US20150164762A1, “USE OF ETHANOLAMINE PHOSPHATE” (priority 2012, published 2015)
Several values for one entry are separate records, joined by “and”; a condition that tells them apart may be missing. Equal values may be shown once.

Test system: BEAS-2B
Experiment: Comprehensive gene expression analysis with Whole Human Genome DNA microarray after EP treatment
Assay type: cell-based
Procedure: Cells of the established normal human airway epithelial cell line BEAS-2B were used in the experiment. These cells were expansively cultured in 10% FBS RPMI-1640, and seeded at a density of 1×10^5/cm^2 on a 24-well plate. After 24 hours 0.1% FBS RPMI-1640 was substituted, and EP was administered to a final concentration of 0 or 1 mM (n=4). After 24 hours, the cells were used as the DNA microarray samples. RNA was extracted using a QIAGEN RNeasy Mini Kit. The DNA microarray test was performed using a Whole Human Genome DNA microarray 4×44K (Agilent), and the necessary labeling reagents and the like for the DNA microarray test were all from Agilent. The DNA microarray test data were analyzed statistically with GeneSpring (Agilent) dedicated analysis software, and gene function analysis (Gene Ontology (GO) analysis) was performed based on differential expression. The purpose of the GO analysis is to determine stochastically the degree to which gene sets with statistically significant differential expression correspond to known functional classification gene sets. […] The p-value is calculated according to the following formula.

[1] = probe A_23_P30122, NM_000586, EP vs control
[2] = probe A_23_P34804, 1 mM EP, 24 h
[3] = probe A_23_P37736, 1 mM EP, 24 h
[4] = probe A_23_P40453, NM_001236, EP vs control
[5] = probe A_23_P45133, NM_27087, EP vs control
[6] = probe A_23_P48740, NM_013989, EP vs control
[7] = probe A_23_P51361, NM_175852, EP vs control
[8] = probe A_23_P53467, 1 mM EP, 24 h
[9] = probe A_23_P54144, 1 mM EP, 24 h
[10] = probe A_23_P55544, 1 mM EP, 24 h
[11] = probe A_23_P56922, 1 mM EP, 24 h
[12] = probe A_23_P56933, 1 mM EP, 24 h
[13] = probe A_23_P58180, NM_207352, EP vs control
[14] = probe A_23_P62959, 1 mM EP, 24 h
[15] = probe A_23_P63898, 1 mM EP, 24 h
[16] = probe A_23_P64129, NM_006410, EP vs control
[17] = probe A_23_P64129, 1 mM EP, 24 h
[18] = probe A_23_P67169, NM_000641, EP vs control
[19] = probe A_23_P68487, NM_001719, EP vs control
[20] = probe A_23_P69030, 1 mM EP, 24 h
[21] = probe A_23_P70398, NM_001025370, EP vs control
[22] = probe A_23_P72096, NM_000575, EP vs control
[23] = probe A_23_P72096, 1 mM EP, 24 h
[24] = probe A_23_P72285, 1 mM EP, 24 h
[25] = probe A_23_P74081, 1 mM EP, 24 h
[26] = probe A_23_P74380, 1 mM EP, 24 h
[27] = probe A_23_P76078, NM_016584, EP vs control
[28] = probe A_23_P81805, NM_001025366, EP vs control
[29] = probe A_23_P82550, 1 mM EP, 24 h
[30] = probe A_23_P87560, 1 mM EP, 24 h
[31] = probe A_23_P88404, 1 mM EP, 24 h
[32] = probe A_23_P88589, 1 mM EP, 24 h
[33] = probe A_23_P89550, 1 mM EP, 24 h
[34] = probe A_23_P89835, 1 mM EP, 24 h
[35] = probe A_23_P90601, NM_182915, EP vs control
[36] = probe A_23_P91504, 1 mM EP, 24 h

NCCOP(=O)(O)O [EP, Ethanolamine phosphate]
BDH1 gene expression, log2 [ratio] (probe A_23_P29754, NM_203314, EP vs control): 0.548
IL2 gene expression, R* ratio to control [1]: 0.537 times
IL2 gene expression, log2 [ratio] [1]: −0.898
NTRK1 expression R: Ratio to control [2]: 0.261 times
NTRK1 expression log2 [ratio] [2]: −1.936
TNFRSF17 expression R*: Ratio to control [3]: 2.525 times
TNFRSF17 expression log2 [ratio] [3]: 1.336
CBR3 gene expression, R* ratio to control [4]: 1.406 times
CBR3 gene expression, log2 [ratio] [4]: 0.491
CSF1 gene expression, R* ratio to control [5]: 0.602 times
CSF1 gene expression, log2 [ratio] [5]: −0.732
DIO2 gene expression, R* ratio to control [6]: 1.694 times
DIO2 gene expression, log2 [ratio] [6]: 0.761
TXLNA gene expression, R* ratio to control [7]: 0.560 times
TXLNA gene expression, log2 [ratio] [7]: −0.837
IKBIP expression R*: Ratio to control [8]: 0.626 times
IKBIP expression log2 [ratio] [8]: −0.675
BMP4 expression R*: Ratio to control [9]: 1.820 times
BMP4 expression log2 [ratio] [9]: 0.864
CCBE1 expression R*: Ratio to control [10]: 1.755 times
CCBE1 expression log2 [ratio] [10]: 0.811
HSPE1 expression R*: Ratio to control [11]: 1.531 times
HSPE1 expression log2 [ratio] [11]: 0.615
RTN4 expression R*: Ratio to control [12]: 1.510 times
RTN4 expression log2 [ratio] [12]: 0.594
CYP4V2 gene expression, R* ratio to control [13]: 2.178 times
CYP4V2 gene expression, log2 [ratio] [13]: 1.123
PHLDA3 expression R: Ratio to control [14]: 0.271 times
PHLDA3 expression log2 [ratio] [14]: −1.884
FAS expression R*: Ratio to control [15]: 0.364 times
FAS expression log2 [ratio] [15]: −1.457
HTATIP2 gene expression, R* ratio to control [16]: 1.735 times
HTATIP2 gene expression, log2 [ratio] [16]: 0.795
HTATIP2 expression R*: Ratio to control [17]: 1.735 times
HTATIP2 expression log2 [ratio] [17]: 0.795
IL11 gene expression, R* ratio to control [18]: 0.358 times
IL11 gene expression, log2 [ratio] [18]: −1.482
BMP7 gene expression, R* ratio to control [19]: 0.136 times
BMP7 gene expression, log2 [ratio] [19]: −2.883
COL8A1 expression R*: Ratio to control [20]: 1.999 times
COL8A1 expression log2 [ratio] [20]: 0.999
VEGFA gene expression, R* ratio to control [21]: 0.501 times
VEGFA gene expression, log2 [ratio] [21]: −0.997
IL1A gene expression, R* ratio to control [22]: 0.216 times
IL1A gene expression, log2 [ratio] [22]: −2.211
IL1A expression R*: Ratio to control [23]: 0.216 times
IL1A expression log2 [ratio] [23]: −2.211
YWHAE expression R*: Ratio to control [24]: 1.529 times
YWHAE expression log2 [ratio] [24]: 0.813 and 0.613
TP73 expression R*: Ratio to control [25]: 0.557 times
TP73 expression log2 [ratio] [25]: −0.843
WARS2 expression R*: Ratio to control [26]: 1.594 times
WARS2 expression log2 [ratio] [26]: 0.673
IL23A gene expression, R* ratio to control [27]: 0.508 times
IL23A gene expression, log2 [ratio] [27]: −0.977
VEGFA gene expression, R* ratio to control [28]: 0.611 times
VEGFA gene expression, log2 [ratio] [28]: −0.710
STK17A expression R*: Ratio to control [29]: 0.623 times
STK17A expression log2 [ratio] [29]: −0.683
BTG1 expression R*: Ratio to control [30]: 0.41B
BTG1 expression log2 [ratio] [30]: −1.265
TGFB3 expression R*: Ratio to control [31]: 0.590 times
TGFB3 expression log2 [ratio] [31]: −0.761
NR2F2 expression R*: Ratio to control [32]: 1.662 times
NR2F2 expression log2 [ratio] [32]: 0.733
NLRP1 expression R*: Ratio to control [33]: 0.483 times
NLRP1 expression log2 [ratio] [33]: −1.048
MAPRE2 expression R*: Ratio to control [34]: 1.538 times
MAPRE2 expression log2 [ratio] [34]: 0.621
STEAP3 gene expression, R* ratio to control [35]: 2.194 times
STEAP3 gene expression, log2 [ratio] [35]: 1.134
ITSN1 expression R*: Ratio to control [36]: 3.487 times
ITSN1 expression log2 [ratio] [36]: 1.802
CIDEC expression R*: Ratio to control (probe A_23_P92025, 1 mM EP, 24 h): 0.593 times
